Laboratory results from PubChem BioAssay (NCI).
Several values for one entry are separate records, joined by “and”; a condition that tells them apart may be missing. Equal values may be shown once.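 Step 1: Grow cells in 96-well plates. Step 2: Expose to compound for 48 hours at 5 concentrations. Step 3: Interpolate endpoints linearly; if unreached, use highest concentration. Abbreviation: GI50, concentration required for 50% inhibition of growth. TGI is the concentration that stops growth completely.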

Experiments:
Assay in all cases: DTP human tumour cell line panel, 48 h
PC-3 prostate = system: PC-3 prostate
MALME-3M melanoma = system: MALME-3M melanoma
IGROV1 ovarian = system: IGROV1 ovarian
SR leukemia = system: SR leukemia
NCI-H460 lung = system: NCI-H460 lung
TK-10 renal = system: TK-10 renal
SK-MEL-2 melanoma = system: SK-MEL-2 melanoma
OVCAR-3 ovarian = system: OVCAR-3 ovarian
HL-60(TB) leukemia = system: HL-60(TB) leukemia
LOX IMVI melanoma = system: LOX IMVI melanoma
NCI-H23 lung = system: NCI-H23 lung
HOP-62 NSCLC = system: HOP-62 NSCLC
OVCAR-5 ovarian = system: OVCAR-5 ovarian
DU-145 prostate = system: DU-145 prostate
HT29 colon = system: HT29 colon

Row | SMILES | TGI (PC-3 prostate) | TGI (MALME-3M melanoma) | TGI (IGROV1 ovarian) | TGI (SR leukemia) | TGI (NCI-H460 lung) | TGI (TK-10 renal) | TGI (SK-MEL-2 melanoma) | TGI (OVCAR-3 ovarian) | TGI (HL-60(TB) leukemia) | TGI (LOX IMVI melanoma) | TGI (NCI-H23 lung) | TGI (HOP-62 NSCLC) | TGI (OVCAR-5 ovarian) | TGI (DU-145 prostate) | TGI (HT29 colon) | GI50 (NCI-H460 lung) | GI50 (OVCAR-3 ovarian) | GI50 (LOX IMVI melanoma) | GI50 (NCI-H23 lung)
1 | O=c1cnn(C/C=C/CP(=O)(O)O)c(=O)[nH]1 | > 100 µM | > 100 µM | > 100 µM | > 100 µM | > 100 µM | > 100 µM | > 100 µM | > 100 µM | > 100 µM | > 100 µM | > 100 µM | > 100 µM | > 100 µM | > 100 µM | – | – | – | – | –
2 | COc1cccc(N2C(=O)CSC2c2c[nH]c3ccccc23)c1 (centres undefined) | > 100 µM | – | > 100 µM | > 100 µM | > 100 µM | > 100 µM | – | > 100 µM | > 100 µM | > 100 µM | > 100 µM | > 100 µM | > 100 µM | > 100 µM | > 100 µM | – | – | – | –
3 | CCOC(=O)c1csc(NC(=O)CN2CCCCC2)n1 | > 100 µM | – | > 100 µM | – | > 100 µM | > 100 µM | > 100 µM | > 100 µM | > 100 µM | > 100 µM | > 100 µM | > 100 µM | > 100 µM | > 100 µM | > 100 µM | – | – | – | –
4 | COC(=O)C1C(O)C(C)C(O)C(C)/C=C\C=C(C)C(=O)Nc2c(C)c(OC(C)=O)c3c(c2O)C(=O)C(C)=C2OCOC(=C23)C(C)=CC(C)(O)C(O)C(C)C1O (centres undefined) | > 100 µM | > 100 µM | > 100 µM | > 100 µM | > 100 µM | > 100 µM | 36.2 µM and > 100 µM | > 72 µM and 64.2 µM | 42.2 µM and > 100 µM | 41 µM and > 100 µM | 58.9 µM and > 100 µM | > 100 µM | > 100 µM | > 100 µM | 40.2 µM and > 100 µM | 20.5 µM and > 100 µM | 37.8 µM | 17.9 µM and 41.3 µM | 32.6 µM and > 100 µM
5 | CC(C)OP(=O)(OC(C)C)c1nn(-c2ccc([N+](=O)[O-])cc2)c(=N)s1 | – | > 100 µM | > 100 µM | – | > 100 µM | > 100 µM | – | > 100 µM | > 100 µM | – | > 100 µM | > 100 µM | > 100 µM | – | > 100 µM | – | – | – | –
